These results are taken from publication PMC8799717, “Pharmacological targeting PIKfyve and tubulin as an effective treatment strategy for double-hit lymphoma” (Cell Death Discovery, 2022).

Some targets named below: CSNK1D (Homo sapiens, UniProt P48730); RET(M918T) (Homo sapiens, UniProt P07949, M918T); LIMK1 (Homo sapiens, UniProt P53667); MAP3K15 (Homo sapiens, UniProt Q6ZN16); GRK1 (Homo sapiens, UniProt Q15835); INSRR (Homo sapiens, UniProt P14616); GRK7 (Homo sapiens, UniProt Q8WTQ7); PKN1 (Homo sapiens, UniProt Q16512); ULK2 (Homo sapiens, UniProt Q8IYT8); SRMS (Homo sapiens, UniProt Q9H3Y6); CSF1R-autoinhibited (Homo sapiens, UniProt P07333); TLK2 (Homo sapiens, UniProt Q86UE8); SLK (Homo sapiens, UniProt Q9H2G2); FLT3(D835V) (Homo sapiens, UniProt P36888, D835V); FLT3(R834Q) (Homo sapiens, UniProt P36888, R834Q); HUNK (Homo sapiens, UniProt P57058).

Common to all, as to assay: biochemical
Common to all, as to design: KINOMEscan active-site-directed competition binding panel, 468 kinases, percent of DMSO control at 1 uM
Holding throughout (details): KINOMEscan binding, percent of DMSO control; read-out: Ctrl%

A further assay has as its target T1, PRP4 (Homo sapiens, UniProt Q13523).
T1 construct: gene PRPF4B

Another assay has as its target T2, MEK1 (Homo sapiens, UniProt Q02750).
T2 construct: gene MAP2K1

The target in the next assay is T3, ICK (Homo sapiens, UniProt Q9UPZ9).
T3 construct: gene CILK1
T3 sequence (Q9UPZ9 whole entry): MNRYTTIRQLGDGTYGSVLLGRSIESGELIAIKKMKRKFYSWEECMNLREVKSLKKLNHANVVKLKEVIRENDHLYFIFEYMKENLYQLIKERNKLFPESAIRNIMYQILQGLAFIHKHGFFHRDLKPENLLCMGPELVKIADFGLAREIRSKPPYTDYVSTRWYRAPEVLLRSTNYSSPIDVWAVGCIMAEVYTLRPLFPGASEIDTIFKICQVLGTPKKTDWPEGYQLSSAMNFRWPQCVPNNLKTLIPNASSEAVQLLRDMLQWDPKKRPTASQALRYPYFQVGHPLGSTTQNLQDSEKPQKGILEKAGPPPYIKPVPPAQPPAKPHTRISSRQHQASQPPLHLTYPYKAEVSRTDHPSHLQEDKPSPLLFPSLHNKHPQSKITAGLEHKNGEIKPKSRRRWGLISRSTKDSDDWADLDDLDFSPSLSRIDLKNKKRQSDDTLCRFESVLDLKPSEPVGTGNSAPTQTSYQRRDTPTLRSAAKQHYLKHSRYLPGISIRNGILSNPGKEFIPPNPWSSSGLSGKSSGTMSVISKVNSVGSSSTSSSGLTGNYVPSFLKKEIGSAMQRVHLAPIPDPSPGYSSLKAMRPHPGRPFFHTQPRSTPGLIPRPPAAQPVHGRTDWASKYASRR

The next assay has as its target T4, PRKR (Homo sapiens, UniProt P19525).
T4 construct: gene EIF2AK2

Assay [1] has as its target T5, RSK3(Kin.Dom.1-N-terminal) (Homo sapiens, UniProt Q15349).
T5 construct: gene RPS6KA2; Kin.Dom.1-N-terminal

The next assay deals with T6, MKK7 (Homo sapiens, UniProt O14733).
T6 construct: gene MAP2K7

The next assay addresses T7, AMPK-alpha1 (Homo sapiens, UniProt Q13131).
T7 construct: gene PRKAA1

Another assay has as its target T8, PCTK2 (Homo sapiens, UniProt Q00537).
T8 construct: gene CDK17

Structures are written as SMILES.

Chain of GRK1 (Q15835 whole entry): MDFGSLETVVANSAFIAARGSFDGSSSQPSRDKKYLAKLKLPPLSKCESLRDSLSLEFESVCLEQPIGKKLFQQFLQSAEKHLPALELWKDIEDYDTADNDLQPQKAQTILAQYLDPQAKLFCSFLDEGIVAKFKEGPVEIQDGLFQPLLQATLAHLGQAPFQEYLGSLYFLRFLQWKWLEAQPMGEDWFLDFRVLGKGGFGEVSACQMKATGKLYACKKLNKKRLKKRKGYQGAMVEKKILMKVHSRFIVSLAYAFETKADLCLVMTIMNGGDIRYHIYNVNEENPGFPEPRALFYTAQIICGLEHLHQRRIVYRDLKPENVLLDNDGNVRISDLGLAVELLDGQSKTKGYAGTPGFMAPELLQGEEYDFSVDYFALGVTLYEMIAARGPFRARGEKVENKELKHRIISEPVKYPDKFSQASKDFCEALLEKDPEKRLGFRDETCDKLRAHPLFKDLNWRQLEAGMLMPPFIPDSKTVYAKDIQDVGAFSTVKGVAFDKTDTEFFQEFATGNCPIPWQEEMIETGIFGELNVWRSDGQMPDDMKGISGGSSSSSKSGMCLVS
Chain of CSF1R-autoinhibited (P07333 whole entry): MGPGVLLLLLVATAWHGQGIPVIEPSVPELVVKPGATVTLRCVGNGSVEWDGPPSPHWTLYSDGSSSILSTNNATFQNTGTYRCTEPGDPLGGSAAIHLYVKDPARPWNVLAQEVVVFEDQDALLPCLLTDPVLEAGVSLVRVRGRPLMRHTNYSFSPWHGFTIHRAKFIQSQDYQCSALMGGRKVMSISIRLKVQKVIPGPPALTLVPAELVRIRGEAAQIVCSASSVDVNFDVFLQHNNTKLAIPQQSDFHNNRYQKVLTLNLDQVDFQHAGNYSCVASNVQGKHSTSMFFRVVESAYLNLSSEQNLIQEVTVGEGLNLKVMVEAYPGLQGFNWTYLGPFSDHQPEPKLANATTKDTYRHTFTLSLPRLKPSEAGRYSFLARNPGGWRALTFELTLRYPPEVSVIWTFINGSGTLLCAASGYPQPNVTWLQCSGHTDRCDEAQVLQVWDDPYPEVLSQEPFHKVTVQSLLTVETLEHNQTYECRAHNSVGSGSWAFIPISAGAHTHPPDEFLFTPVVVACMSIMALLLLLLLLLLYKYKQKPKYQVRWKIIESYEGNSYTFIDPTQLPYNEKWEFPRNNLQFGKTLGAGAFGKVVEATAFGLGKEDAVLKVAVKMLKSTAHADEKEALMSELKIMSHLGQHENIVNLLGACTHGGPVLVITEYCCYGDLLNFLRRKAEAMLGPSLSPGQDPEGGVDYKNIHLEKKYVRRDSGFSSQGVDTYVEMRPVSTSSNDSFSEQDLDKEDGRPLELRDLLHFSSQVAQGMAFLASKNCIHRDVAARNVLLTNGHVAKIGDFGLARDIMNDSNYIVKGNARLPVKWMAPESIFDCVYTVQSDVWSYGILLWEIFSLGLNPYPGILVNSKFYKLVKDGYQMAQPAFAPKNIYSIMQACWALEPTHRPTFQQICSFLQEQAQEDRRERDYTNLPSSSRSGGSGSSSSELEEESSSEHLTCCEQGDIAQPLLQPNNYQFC
T7 sequence (Q13131 whole entry): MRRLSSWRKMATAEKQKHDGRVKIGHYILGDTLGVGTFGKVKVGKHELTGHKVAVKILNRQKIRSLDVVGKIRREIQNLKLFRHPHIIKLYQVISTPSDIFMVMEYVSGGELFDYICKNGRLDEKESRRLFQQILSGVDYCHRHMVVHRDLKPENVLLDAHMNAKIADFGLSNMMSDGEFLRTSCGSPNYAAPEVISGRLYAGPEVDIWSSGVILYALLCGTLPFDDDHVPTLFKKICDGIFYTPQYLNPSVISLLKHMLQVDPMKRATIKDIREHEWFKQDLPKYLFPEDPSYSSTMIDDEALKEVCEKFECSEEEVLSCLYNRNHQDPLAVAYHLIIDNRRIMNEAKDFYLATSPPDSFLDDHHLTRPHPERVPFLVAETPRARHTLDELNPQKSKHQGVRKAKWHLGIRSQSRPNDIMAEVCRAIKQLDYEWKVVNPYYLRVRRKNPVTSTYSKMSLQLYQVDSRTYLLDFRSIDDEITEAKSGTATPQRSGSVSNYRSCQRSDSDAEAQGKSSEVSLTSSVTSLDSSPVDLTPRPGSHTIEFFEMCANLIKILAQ
Chain of SLK (Q9H2G2 whole entry): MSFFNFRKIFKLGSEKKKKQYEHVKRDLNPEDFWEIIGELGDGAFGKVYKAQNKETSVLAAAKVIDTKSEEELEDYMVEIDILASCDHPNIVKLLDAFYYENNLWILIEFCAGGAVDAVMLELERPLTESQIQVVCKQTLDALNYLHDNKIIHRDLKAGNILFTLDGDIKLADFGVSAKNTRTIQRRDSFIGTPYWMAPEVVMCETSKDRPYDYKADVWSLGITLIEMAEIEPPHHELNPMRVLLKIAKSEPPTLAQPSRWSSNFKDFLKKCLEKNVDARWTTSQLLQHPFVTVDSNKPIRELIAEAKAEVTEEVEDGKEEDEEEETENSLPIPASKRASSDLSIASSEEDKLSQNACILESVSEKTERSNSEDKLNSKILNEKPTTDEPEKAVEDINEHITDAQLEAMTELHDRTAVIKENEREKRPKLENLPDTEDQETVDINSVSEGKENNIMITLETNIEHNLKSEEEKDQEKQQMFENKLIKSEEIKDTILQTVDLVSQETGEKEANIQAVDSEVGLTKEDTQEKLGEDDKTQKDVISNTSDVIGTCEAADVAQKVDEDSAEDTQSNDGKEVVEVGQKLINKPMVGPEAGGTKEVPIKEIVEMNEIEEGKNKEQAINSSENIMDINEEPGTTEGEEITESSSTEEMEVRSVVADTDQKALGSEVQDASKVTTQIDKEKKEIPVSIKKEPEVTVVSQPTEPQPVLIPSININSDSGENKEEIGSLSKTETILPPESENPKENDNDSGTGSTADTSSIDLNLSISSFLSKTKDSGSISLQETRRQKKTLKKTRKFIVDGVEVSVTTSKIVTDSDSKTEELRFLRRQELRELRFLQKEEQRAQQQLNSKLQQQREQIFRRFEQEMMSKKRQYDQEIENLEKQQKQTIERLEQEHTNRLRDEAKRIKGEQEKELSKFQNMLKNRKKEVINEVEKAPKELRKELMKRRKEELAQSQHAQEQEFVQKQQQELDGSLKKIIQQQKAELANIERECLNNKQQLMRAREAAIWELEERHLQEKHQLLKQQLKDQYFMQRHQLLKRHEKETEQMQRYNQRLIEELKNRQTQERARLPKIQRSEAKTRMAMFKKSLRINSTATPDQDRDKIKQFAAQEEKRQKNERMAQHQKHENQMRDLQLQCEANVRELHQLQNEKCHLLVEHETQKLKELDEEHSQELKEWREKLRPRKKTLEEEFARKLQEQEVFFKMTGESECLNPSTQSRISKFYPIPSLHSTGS
Chain of CSNK1D (P48730 whole entry): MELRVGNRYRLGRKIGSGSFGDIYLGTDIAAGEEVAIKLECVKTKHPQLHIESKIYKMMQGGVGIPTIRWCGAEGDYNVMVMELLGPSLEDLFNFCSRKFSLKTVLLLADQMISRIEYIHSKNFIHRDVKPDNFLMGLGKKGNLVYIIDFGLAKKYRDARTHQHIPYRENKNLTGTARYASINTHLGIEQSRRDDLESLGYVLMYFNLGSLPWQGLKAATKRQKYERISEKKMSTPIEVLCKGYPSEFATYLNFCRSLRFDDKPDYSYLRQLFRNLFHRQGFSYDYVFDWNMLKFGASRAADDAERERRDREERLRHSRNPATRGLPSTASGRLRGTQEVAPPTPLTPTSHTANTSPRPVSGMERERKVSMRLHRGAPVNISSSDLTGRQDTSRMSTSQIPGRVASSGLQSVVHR
Chain of SRMS (Q9H3Y6 whole entry): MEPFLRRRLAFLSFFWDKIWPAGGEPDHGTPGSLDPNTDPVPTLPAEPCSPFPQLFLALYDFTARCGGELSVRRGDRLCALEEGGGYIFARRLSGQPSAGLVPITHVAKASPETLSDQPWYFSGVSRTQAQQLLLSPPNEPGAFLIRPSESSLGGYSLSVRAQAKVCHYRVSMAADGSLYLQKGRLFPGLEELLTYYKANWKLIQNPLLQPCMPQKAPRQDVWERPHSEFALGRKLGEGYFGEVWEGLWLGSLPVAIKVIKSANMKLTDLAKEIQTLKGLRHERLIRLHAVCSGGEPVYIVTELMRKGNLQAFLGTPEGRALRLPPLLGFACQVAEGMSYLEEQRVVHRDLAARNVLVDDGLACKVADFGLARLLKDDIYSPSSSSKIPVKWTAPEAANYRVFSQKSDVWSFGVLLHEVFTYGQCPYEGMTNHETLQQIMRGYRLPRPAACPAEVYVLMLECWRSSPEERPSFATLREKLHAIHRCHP

For the molecule `Cc1ccc(NC(=O)c2cccc(C(F)(F)F)c2)cc1Nc1cc(-c2cccnc2)nc2[nH]ccc12` [HZX-02-059], the remaining binding at 1 µM was found to be 69% on PRP4; 96% on CSNK1D; 99% at RET(M918T); 72% at LIMK1; 53% at MAP3K15; 100% at MEK1. Further, the remaining binding at 1 µM was 77% at GRK1; 100% at INSRR; 80% on GRK7; 77% on ICK; 93% on PKN1; 99% at ULK2. Besides, the remaining binding at 1 µM at SRMS is 100%; at CSF1R-autoinhibited, 93%; on TLK2, 89%; on PRKR it was 95%; on SLK, 100%; in assay [1] it was 98%. Also, the remaining binding at 1 µM at FLT3(D835V) worked out at 100%; at MKK7, 95%; on FLT3(R834Q), 100%; on AMPK-alpha1, 97%; at PCTK2, 100%; on HUNK, 91%.
